What was measured:
Assay in all cases: Bliss excess, mean over the matrix (fraction); higher = more synergy
[1] = tested on: TK (B-Cell Non-Hodgkin's Lymphoma)
In short: (§1)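 Cell lines in DMEM/F12 or RPMI with 10% FBS were plated in 1536-well plates, held 24 hours at 37°C, 5% CO2, then given two-drug dose matrices for 72 hours (DMSO typically 0.2%). Viability was read by CellTiter-Glo 2.0 luminescence and scaled as inhibition from 0 (vehicle wells) to 1 (blank wells). Combination Emax is the second-highest inhibition in the matrix; Bliss excess is observed combination effect minus expected EA + EB − EA·EB, EA and EB being single-agent effects.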

[2] = tested on: C32 (Melanoma)
In short: as §1

[3] = tested on: C2BBe1 (Colorectal Carcinoma)
In short: as §1

[4] = tested on: OCI-M1 (Acute Myeloid Leukemia)
In short: as §1

[5] = tested on: MDA-MB-175-VII (Breast Carcinoma)
In short: as §1

[6] = tested on: Daudi (Burkitt's Lymphoma)
In short: as §1

[7] = tested on: NCI-H1048 (Small Cell Lung Carcinoma)
In short: as §1

[8] = tested on: IGROV-1 (Ovarian Carcinoma)
In short: as §1

[9] = tested on: MRK-nu-1 (Breast Carcinoma)
In short: as §1

[10] = tested on: L-363 (Plasma Cell Myeloma)
In short: as §1

[11] = tested on: A375 (Melanoma)
In short: as §1

[12] = tested on: NCI-H1944 (Lung Adenocarcinoma)
In short: as §1

[13] = tested on: SW1463 (Colorectal Carcinoma)
In short: as §1

[14] = tested on: GRANTA-519 (B-Cell Non-Hodgkin's Lymphoma)
In short: as §1

[15] = tested on: NCI-H2170 (Squamous Cell Lung Carcinoma)
In short: as §1

[16] = tested on: HT-1197 (Bladder Carcinoma)
In short: as §1

[17] = tested on: OVKATE (Ovarian Carcinoma)
In short: as §1

[18] = tested on: COR-L105 (Lung Adenocarcinoma)
In short: as §1

[19] = tested on: SK-N-DZ (Neuroblastoma)
In short: as §1

[20] = tested on: SBC-5 (Small Cell Lung Carcinoma)
In short: as §1

| SMILES | Bliss excess [1] | Bliss excess [2] | Bliss excess [3] | Bliss excess [4] | Bliss excess [5] | Bliss excess [6] | Bliss excess [7] | Bliss excess [8] | Bliss excess [9] | Bliss excess [10] | Bliss excess [11] | Bliss excess [12] | Bliss excess [13] | Bliss excess [14] | Bliss excess [15] | Bliss excess [16] | Bliss excess [17] | Bliss excess [18] | Bliss excess [19] | Bliss excess [20] |
| --- | --- | --- | --- | --- | --- | --- | --- | --- | --- | --- | --- | --- | --- | --- | --- | --- | --- | --- | --- | --- |
| Cc1c2c(nn1C)CSCc1cc(n(C)n1)CSc1cc(c3ccccc3c1)OCCCc1c(C(=O)O)n(C)c3c-2c(Cl)ccc13 [AZD5991] + Cc1cc2ncnn2cc1Nc1ncc2c(n1)n(C1CCOCC1)c(=O)n2C [AZD7648] (first compound max 1 µM, 7x7, partner max 10 µM) | -0.0046 | -0.0308 | -0.0449 | -0.001 | -0.0055 | 0.0041 | -0.0227 | -0.103 | -0.0058 | 0.0345 | -0.0244 | -0.039 | -0.015 | -0.0268 | -0.0144 | -0.059 | -0.0347 | -0.0645 | -0.0564 | -0.0447 |
| Cc1c2c(nn1C)CSCc1cc(n(C)n1)CSc1cc(c3ccccc3c1)OCCCc1c(C(=O)O)n(C)c3c-2c(Cl)ccc13 [AZD5991] + Cn1cnc2c(F)c(Nc3ccc(Br)cc3Cl)c(C(=O)NOCCO)cc21 [Selumetinib] (first compound max 1 µM, 7x7, partner max 3 µM) | -0.009 | 0.0678 | -0.0033 | 0.03 | -0.0217 | 0.0545 | -0.0224 | 0.0372 | 0.0052 | 0.0099 | 0.0086 | 0.027 | -0.0352 | -0.0162 | -0.0377 | -0.0375 | -0.0724 | -0.0263 | 0.018 | 0 |
| NC1(C(=O)N[C@@H](CCO)c2ccc(Cl)cc2)CCN(c2ncnc3[nH]ccc23)CC1 [Capivasertib] + CC(=O)c1c(C)c2cnc(Nc3ccc(N4CCNCC4)cn3)nc2n(C2CCCC2)c1=O [Palbociclib] (first compound max 10 µM, 7x7, partner max 10 µM) | -0.0218 | 0.0018 | -0.0094 | -0.0056 | 0.0127 | 0.0065 | -0.0269 | -0.048 | 0.001 | -0.0413 | 0.0051 | 0.02 | -0.0837 | -0.0273 | 0.0137 | 0.0024 | -0.018 | 0.0532 | 0.0628 | 0.0352 |
| NC1(C(=O)N[C@@H](CCO)c2ccc(Cl)cc2)CCN(c2ncnc3[nH]ccc23)CC1 [Capivasertib] + CC(C)n1c(=O)n(C)c2cnc3cc(F)c(-c4ccc(OCCCN5CCCCC5)nc4)cc3c21 [AZD1390] (first compound max 10 µM, 7x7, partner max 0.3 µM) | -0.0045 | -0.0343 | -0.0856 | -0.0268 | -0.0189 | -0.0326 | -0.037 | -0.0147 | -0.0985 | -0.0749 | -0.0496 | -0.0893 | -0.0196 | -0.0859 | -0.0679 | -0.0388 | -0.0549 | -0.0635 | -0.0605 | -0.0792 |
| NC1(C(=O)N[C@@H](CCO)c2ccc(Cl)cc2)CCN(c2ncnc3[nH]ccc23)CC1 [Capivasertib] + CCN(CCO)CCCOc1ccc2c(Nc3cc(CC(=O)Nc4cccc(F)c4)[nH]n3)ncnc2c1 [AZD2811] (first compound max 10 µM, 7x7, partner max 1 µM) | 0.0103 | 0.0477 | -0.0382 | 0.066 | -0.0202 | 0.103 | -0.0003 | -0.0632 | 0.0481 | -0.0235 | -0.0008 | 0.101 | -0.0239 | 0.0258 | 0.0135 | 0.016 | -0.0367 | -0.0523 | 0.0051 | 0.0526 |
| NC1(C(=O)N[C@@H](CCO)c2ccc(Cl)cc2)CCN(c2ncnc3[nH]ccc23)CC1 [Capivasertib] + COc1nnc2ccc(N3CCC(c4ccc(OCCN5CCN(C)C(=O)[C@H]5C)cc4)CC3)nn12 [AZD5153] (first compound max 10 µM, 7x7, partner max 1 µM) | 0.012 | 0.0434 | -0.0365 | -0.0026 | 0.0129 | 0.045 | 0.0588 | -0.0221 | 0.0058 | 0.108 | 0.009 | -0.0124 | -0.0021 | -0.0148 | 0.0383 | 0.0255 | -0.0368 | 0.0024 | 0.0675 | 0.0351 |
| NC1(C(=O)N[C@@H](CCO)c2ccc(Cl)cc2)CCN(c2ncnc3[nH]ccc23)CC1 [Capivasertib] + C[C@@H]1COCCN1C2=NC(=NC(=C2)C3(CC3)[S@](=N)(=O)C)C4=C5C=CNC5=NC=C4 [AZD6738] (first compound max 10 µM, 7x7, partner max 10 µM) | -0.0045 | -0.0288 | -0.0722 | 0.0211 | -0.0407 | 0.0167 | -0.0204 | -0.0883 | 0.0032 | -0.0201 | -0.0239 | -0.0268 | -0.101 | -0.0136 | -0.0011 | -0.0491 | -0.0516 | -0.034 | 0.0045 | -0.0169 |
| NC1(C(=O)N[C@@H](CCO)c2ccc(Cl)cc2)CCN(c2ncnc3[nH]ccc23)CC1 [Capivasertib] + Cn1cnc2c(F)c(Nc3ccc(Br)cc3Cl)c(C(=O)NOCCO)cc21 [Selumetinib] (first compound max 10 µM, 7x7, partner max 10 µM) | -0.0189 | 0.0905 | -0.0036 | 0.0825 | 0.0989 | -0.0138 | 0.0363 | -0.0493 | 0.0218 | 0.0156 | 0.0344 | 0.0543 | -0.0255 | -0.0205 | 0.0047 | 0.0646 | 0.0215 | -0.0333 | 0.0254 | 0.0801 |
| COc1cccc2c1C(=O)c1c(O)c3c(c(O)c1C2=O)C[C@@](O)(C(=O)CO)C[C@@H]3O[C@H]1C[C@H](N)[C@H](O)[C@H](C)O1 [Doxorubicin] + Cc1cc2ncnn2cc1Nc1ncc2c(n1)n(C1CCOCC1)c(=O)n2C [AZD7648] (first compound max 1 µM, 7x7, partner max 10 µM) | 0.0292 | 0.044 | -0.0082 | 0.102 | -0.0228 | 0.0985 | 0.0539 | 0.0222 | 0.0157 | 0.0622 | 0.09 | 0.0739 | -0.0363 | 0.102 | 0.0706 | 0.0022 | -0.0594 | 0.022 | 0.112 | 0.0341 |
| CS(=O)(=O)CCNCc1ccc(-c2ccc3ncnc(Nc4ccc(OCc5cccc(F)c5)c(Cl)c4)c3c2)o1 [Lapatinib] + C[C@@H](Oc1cc(-c2cnn(C3CCNCC3)c2)cnc1N)c1c(Cl)ccc(F)c1Cl [Crizotinib] (first compound max 10 µM, 7x7, partner max 10 µM) | 0.0129 | -0.0067 | -0.018 | -0.0347 | -0.0129 | -0.0179 | -0.0255 | -0.0518 | 0.0477 | -0.0208 | -0.0461 | 0.015 | 0.0138 | 0.0192 | -0.0026 | -0.0307 | -0.0448 | -0.004 | -0.0702 | 0.0601 |
| CC(=O)c1c(C)c2cnc(Nc3ccc(N4CCNCC4)cn3)nc2n(C2CCCC2)c1=O [Palbociclib] + CC1(C)CCC(CN2CCN(c3ccc(C(=O)NS(=O)(=O)c4ccc(NCC5CCOCC5)c([N+](=O)[O-])c4)c(Oc4cnc5[nH]ccc5c4)c3)CC2)=C(c2ccc(Cl)cc2)C1 [Venetoclax] (first compound max 10 µM, 7x7, partner max 1 µM) | 0.0332 | -0.0322 | -0.0656 | 0.007 | -0.0174 | 0.0137 | -0.0339 | 0.0026 | -0.0262 | -0.0262 | -0.0197 | 0.0257 | -0.0899 | 0.0884 | 0.0227 | -0.042 | -0.0484 | -0.0399 | 0.0824 | 0.0178 |
| CC(=O)c1c(C)c2cnc(Nc3ccc(N4CCNCC4)cn3)nc2n(C2CCCC2)c1=O [Palbociclib] + Cc1c2c(nn1C)CSCc1cc(n(C)n1)CSc1cc(c3ccccc3c1)OCCCc1c(C(=O)O)n(C)c3c-2c(Cl)ccc13 [AZD5991] (first compound max 10 µM, 7x7, partner max 1 µM) | -0.0191 | -0.0069 | -0.0782 | 0.033 | 0.0232 | 0.0059 | -0.0904 | 0.0122 | -0.0869 | -0.0147 | -0.0057 | 0.0187 | -0.0666 | 0.0039 | -0.0189 | -0.0289 | -0.0382 | -0.0088 | 0.0655 | -0.0171 |
| CC(=O)c1c(C)c2cnc(Nc3ccc(N4CCNCC4)cn3)nc2n(C2CCCC2)c1=O [Palbociclib] + Cn1cnc2c(F)c(Nc3ccc(Br)cc3Cl)c(C(=O)NOCCO)cc21 [Selumetinib] (first compound max 10 µM, 7x7, partner max 10 µM) | -0.0196 | -0.0086 | -0.0273 | 0.0125 | -0.0013 | -0.0641 | -0.0449 | 0.0255 | 0.0259 | 0.0127 | 0.0027 | -0.0022 | 0.0128 | -0.0386 | -0.0284 | -0.0257 | -0.0378 | -0.0355 | -0.0848 | 0.0396 |
| COc1cccc(OCCCN)c1-c1cc(Nc2cnc(C#N)cn2)n[nH]1 [Prexasertib] + C=CCn1c(=O)c2cnc(Nc3ccc(N4CCN(C)CC4)cc3)nc2n1-c1cccc(C(C)(C)O)n1 [AZD1775] (first compound max 1 µM, partner max 1 µM) | -0.0252 | -0.0206 | 0.0545 | 0.0152 | 0.106 | 0.0677 | 0.101 | -0.0343 | 0.211 | 0.0204 | 0.0888 | 0.077 | 0.0656 | -0.0138 | 0.101 | -0.0589 | -0.0665 | 0.0157 | 0.0202 | 0.0356 |
| COc1cccc(OCCCN)c1-c1cc(Nc2cnc(C#N)cn2)n[nH]1 [Prexasertib] + CCc1c2c(nc3ccc(O)cc13)-c1cc3c(c(=O)n1C2)COC(=O)[C@]3(O)CC [SN-38] (first compound max 1 µM, 7x7, partner max 0.3 µM) | 0.0138 | -0.126 | -0.0103 | -0.0042 | -0.0027 | -0.0078 | 0.0152 | -0.0131 | -0.0613 | 0.0377 | -0.0224 | -0.006 | 0.0515 | 0.0025 | -0.0326 | -0.0376 | -0.0292 | -0.0404 | 0.0205 | 0.0007 |
